A short description of this data set: Self-diffusion NMR (SD-NMR) diffusion coefficients of the components of the AX-loaded medium. It is filed as physicochemical. The conditions noted are these: 0.5 wt % AX-loaded medium. As to the method: In order to determine the structure of the oil droplets (or micelles) of the medium, self-diffusion NMR analysis was carried out. SD-NMR is able to locate each component within the medium via measurements of its diffusion coefficient.
NMR measurements were performed with a Bruker AVII 500 spectrometer equipped with GREAT 1/10 gradients, a 5 mm BBO and a 5 mm BBI probe, both with a z-gradient coil and with a maximum gradient strength of 0.509 and 0.544 Tm^−1, respectively. Diffusion was measured using an asymmetric bipolar longitudinal eddy-current delay (bpLED) experiment, or an asymmetric bipolar stimulated echo (known as one-shot) experiment with convection compensation and an asymmetry factor of 20%, ramping the strongest gradient from 2% to 95% of maximum strength in 32 steps. The spectrum was processed with the Bruker TOPSPIN software. NMR spectra were recorded at 25±0.2° C. The components were identified by their chemical shift in 1H NMR.

For `CC1=C(/C=C/C(C)=C/C=C/C(C)=C/C=C/C=C(C)/C=C/C=C(C)/C=C/C2=C(C)C(=O)[C@@H](O)CC2(C)C)C(C)(C)C[C@H](O)C1=O` [AX, astaxanthin], the Diffusion coefficient is, setting by setting: (water content 0 wt %) 4.7 × 10^−12 m^2/sec; (water content 10 wt %) 3 × 10^−12 m^2/sec; (water content 20 wt %) 1.4 × 10^−12 m^2/sec; (water content 30 wt %) 3 × 10^−13 m^2/sec; (water content 40 wt %) 3 × 10^−13 m^2/sec; (water content 50 wt %) 7 × 10^−13 m^2/sec. In addition, the Diffusion coefficient runs as follows: (water content 60 wt %) 1.4 × 10^−12 m^2/sec; (water content 70 wt %) 4.8 × 10^−12 m^2/sec; (water content 80 wt %) 1.12 × 10^−11 m^2/sec.
For the molecule `CCO` [EtOH, Ethanol], the Diffusion coefficient was 4.13 × 10^−11 m^2/sec (water content 0 wt %); 4.66 × 10^−11 m^2/sec (water content 10 wt %); 4.78 × 10^−11 m^2/sec (water content 20 wt %); 8.67 × 10^−11 m^2/sec (water content 30 wt %); 1.2 × 10^−10 m^2/sec (water content 40 wt %); 1.7 × 10^−10 m^2/sec (water content 50 wt %). Besides, the Diffusion coefficient (water content 60 wt %) is listed as 2.33 × 10^−10 m^2/sec, the Diffusion coefficient (water content 70 wt %) was 3.32 × 10^−10 m^2/sec, the Diffusion coefficient (water content 80 wt %) is on record as 4.67 × 10^−10 m^2/sec and the Diffusion coefficient (water content 90 wt %) is 5.89 × 10^−10 m^2/sec.
For `[2H]O[2H]` [Formulation D2O, D2O], the Diffusion coefficient runs as follows: (water content 10 wt %) 3.1 × 10^−11 m^2/sec; (water content 20 wt %) 2.84 × 10^−11 m^2/sec; (water content 30 wt %) 3.2 × 10^−12 m^2/sec; (water content 40 wt %) 1.3 × 10^−12 m^2/sec; (water content 50 wt %) 2.69 × 10^−11 m^2/sec; (water content 60 wt %) 7.96 × 10^−10 m^2/sec. The Diffusion coefficient (water content 70 wt %) is 9.1 × 10^−10 m^2/sec, the Diffusion coefficient (water content 80 wt %) is listed as 1.16 × 10^−9 m^2/sec and the Diffusion coefficient (water content 90 wt %) is reported as 1.48 × 10^−09 m^2/sec.
`CC(O)CO` (stereo not shown) [PG, Propylene glycol]: the Diffusion coefficient runs as follows: (water content 0 wt %) 4.43 × 10^−11 m^2/sec; (water content 10 wt %) 4.78 × 10^−11 m^2/sec; (water content 20 wt %) 4.86 × 10^−11 m^2/sec; (water content 30 wt %) 8.69 × 10^−11 m^2/sec; (water content 40 wt %) 1.23 × 10^−10 m^2/sec; (water content 50 wt %) 1.75 × 10^−10 m^2/sec. For the same molecule, the Diffusion coefficient (water content 60 wt %) is 2.41 × 10^−10 m^2/sec, the Diffusion coefficient (water content 70 wt %) is listed as 3.35 × 10^−10 m^2/sec, the Diffusion coefficient (water content 80 wt %) is given as 4.67 × 10^−10 m^2/sec and the Diffusion coefficient (water content 90 wt %) is 6.03 × 10^−10 m^2/sec.
As for `C=C(C)[C@H]1CC=C(C)CC1` [R-(+)-limonene, R-(+)-Limonene], the Diffusion coefficient (water content 0 wt %) is 5.46 × 10^−11 m^2/sec; the Diffusion coefficient (water content 10 wt %) is on record as 3.09 × 10^−11 m^2/sec; the Diffusion coefficient (water content 20 wt %) is listed as 2.36 × 10^−11 m^2/sec; the Diffusion coefficient (water content 30 wt %) was 3.2 × 10^−12 m^2/sec; the Diffusion coefficient (water content 40 wt %) is 1.4 × 10^−12 m^2/sec; the Diffusion coefficient (water content 50 wt %) is 1.4 × 10^−12 m^2/sec. The Diffusion coefficient is 3.1 × 10^−12 m^2/sec (water content 60 wt %), 5.7 × 10^−12 m^2/sec (water content 70 wt %), 1.10 × 10^−11 m^2/sec (water content 80 wt %) and 1.91 × 10^−11 m^2/sec (water content 90 wt %).
Consider `CCCCCCCC/C=C\CCCCCCCC(=O)OCCOCC(OCCO)C1OCC(OCCO)C1OCCO` (stereo not shown) [Tween 80, Polysorbate 80], for which the Diffusion coefficient is 4.5 × 10^−12 m^2/sec (water content 0 wt %); 3.5 × 10^−12 m^2/sec (water content 10 wt %); 2.9 × 10^−12 m^2/sec (water content 20 wt %); 6 × 10^−13 m^2/sec (water content 30 wt %); 4 × 10^−13 m^2/sec (water content 40 wt %); 9 × 10^−13 m^2/sec (water content 50 wt %). Further, the Diffusion coefficient is recorded as 2.2 × 10^−12 m^2/sec (water content 60 wt %), 5.3 × 10^−12 m^2/sec (water content 70 wt %), 1.05 × 10^−11 m^2/sec (water content 80 wt %) and 1.91 × 10^−11 m^2/sec (water content 90 wt %).

The values are drawn from patent US11224628B2, “Method for extraction of an agent from a plant source” (Yissum Research Development Company of the Hebrew …, priority 2017, dated 2022).
